# Test results from patent publication US20240002438A1, “MELANOCORTIN LIGANDS AND METHODS OF USE THEREOF” (REGENTS OF THE UNIVERSITY OF MINNESOTA, priority 2021, published 2024).
# pEC50, pIC50: −log10 of the molar value. Like-named read-outs stand apart in the source and are kept apart here. Where a SMILES comes first, the peptide text is derived from it. Primed or numbered codes have the meaning given here. [ ]: non-standard residue; d: D form. dBip = N[C@H](Cc1ccc(-c2ccccc2)cc1)C(=O)O; Oic = O=C(O)[C@@H]1C[C@@H]2CCCC[C@@H]2N1; dPhe(4-I) = N[C@H](Cc1ccc(I)cc1)C(=O)O; 2Nal = N[C@@H](Cc1ccc2ccccc2c1)C(=O)O; d2Nal = N[C@H](Cc1ccc2ccccc2c1)C(=O)O; Nle = CCCC[C@H](N)C(=O)O; Pip′ = not defined here
# Tests used:
# [1] = Solubility in solvents compatible with RP-HPLC
# [2] = biological target: T1, mMC1R (Mus musculus, UniProt Q01727); test: cell-based
# T1 sequence (Q01727 whole entry): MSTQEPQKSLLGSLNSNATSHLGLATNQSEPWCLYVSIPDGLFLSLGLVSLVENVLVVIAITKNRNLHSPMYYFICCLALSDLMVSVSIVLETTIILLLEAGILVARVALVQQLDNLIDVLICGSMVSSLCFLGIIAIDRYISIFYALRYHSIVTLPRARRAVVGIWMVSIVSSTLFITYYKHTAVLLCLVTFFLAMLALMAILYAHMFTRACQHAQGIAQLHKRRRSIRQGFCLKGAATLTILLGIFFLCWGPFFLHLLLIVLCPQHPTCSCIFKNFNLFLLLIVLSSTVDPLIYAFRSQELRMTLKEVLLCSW
# Protocol: (§1) Following stimulation, streptavidin donor beads (0.5 μg) and biotinylated-cAMP (0.62 μmol) were added to the wells in a green light environment with 10 μL of lysis buffer (5 mM HEPES, 0.3% Tween-20, 0.1% BSA, pH=7.4) and the plates were incubated in the dark at room temperature for an additional 2 h. Plates were read on a Enspire (PerkinElmer) Alpha-plate reader using a pre-normalized assay protocol (set by the manufacturer).
# [3] = biological target: T2, mMC3R (Mus musculus, UniProt P33033); test: cAMP AlphaScreen antagonist assay at mMC3R, NDP-MSH as agonist, HEK293 cells; conditions: for mMC3R antagonist pA2: NDP-MSH as agonist, HEK293 cells stably expressing mMC3R; for mMC3R antagonist activity: at the concentrations assayed
# T2 sequence (P33033 whole entry): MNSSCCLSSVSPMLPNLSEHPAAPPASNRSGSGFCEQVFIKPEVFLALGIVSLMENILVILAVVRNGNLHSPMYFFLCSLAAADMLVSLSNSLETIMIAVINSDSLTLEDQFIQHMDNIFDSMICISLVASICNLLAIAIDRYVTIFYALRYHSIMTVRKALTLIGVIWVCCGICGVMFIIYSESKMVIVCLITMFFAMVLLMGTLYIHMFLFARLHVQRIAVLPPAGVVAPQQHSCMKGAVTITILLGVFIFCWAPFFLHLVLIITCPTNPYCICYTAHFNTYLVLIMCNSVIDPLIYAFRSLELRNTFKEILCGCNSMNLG
# [4] = biological target: T2, mMC3R; set-up: expressed in transfected cells; host or cells: HEK293; conditions: Doering 2017; cited from earlier work
# [5] = biological target: T2, mMC3R; set-up: expressed in transfected cells; host or cells: HEK293; conditions: Doering 2017; cited from earlier work; remark: listed apart in the source
# [6] = biological target: T3, mMC4R (Mus musculus, UniProt P56450); set-up: expressed in transfected cells; host or cells: HEK293; conditions: Doering 2017; cited from earlier work
# T3 sequence (P56450 whole entry): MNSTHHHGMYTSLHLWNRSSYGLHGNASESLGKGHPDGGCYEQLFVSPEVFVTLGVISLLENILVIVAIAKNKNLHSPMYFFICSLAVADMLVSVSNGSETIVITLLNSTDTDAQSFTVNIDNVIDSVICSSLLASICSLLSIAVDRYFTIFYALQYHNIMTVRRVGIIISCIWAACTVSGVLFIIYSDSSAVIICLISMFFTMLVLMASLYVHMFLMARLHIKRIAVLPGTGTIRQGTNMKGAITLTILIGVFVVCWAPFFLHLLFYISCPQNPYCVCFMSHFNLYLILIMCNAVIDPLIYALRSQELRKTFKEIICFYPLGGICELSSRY
# [7] = biological target: T4, mMC5R (Mus musculus, UniProt P41149); set-up: expressed in transfected cells; host or cells: HEK293; conditions: Doering 2017; cited from earlier work
# T4 sequence (P41149 whole entry): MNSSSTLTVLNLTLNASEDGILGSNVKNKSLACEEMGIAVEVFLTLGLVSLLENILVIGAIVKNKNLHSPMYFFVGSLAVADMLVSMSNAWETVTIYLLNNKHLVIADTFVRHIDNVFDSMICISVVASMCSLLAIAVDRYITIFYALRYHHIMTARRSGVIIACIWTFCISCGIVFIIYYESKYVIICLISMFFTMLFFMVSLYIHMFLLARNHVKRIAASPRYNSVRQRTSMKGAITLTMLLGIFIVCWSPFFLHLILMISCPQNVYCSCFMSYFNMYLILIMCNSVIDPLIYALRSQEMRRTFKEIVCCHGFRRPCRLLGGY
# [8] = biological target: T3, mMC4R; test: cAMP AlphaScreen antagonist assay at mMC4R, NDP-MSH as agonist, HEK293 cells; conditions: for mMC4R antagonist pA2: NDP-MSH as agonist, HEK293 cells stably expressing mMC4R
# Protocol: as §1
# [9] = biological target: T3, mMC4R; set-up: expressed in transfected cells; host or cells: HEK293; conditions: cited from earlier work
# [10] = biological target: T1, mMC1R; conditions: for mMC1R agonist activity: up to 100 μM
# Protocol: as §1
# [11] = biological target: T4, mMC5R; test: cAMP AlphaScreen agonist assay at mMC5R, HEK293 cells; conditions: for mMC5R agonist activity: up to 100 μM
# Protocol: as §1
# [12] = biological target: T3, mMC4R; test: cAMP AlphaScreen agonist assay at mMC4R, HEK293 cells; conditions: for mMC4R agonist activity: up to 100 μM
# Protocol: as §1
# [13] = biological target: T2, mMC3R; test: cAMP AlphaScreen agonist assay at mMC3R, HEK293 cells; conditions: up to 100 μM
# Protocol: as §1
# [14] = biological target: T5, MC4R (Homo sapiens, UniProt P32245); conditions: Nozawa 2007; cited from earlier work
# T5 sequence (P32245 whole entry): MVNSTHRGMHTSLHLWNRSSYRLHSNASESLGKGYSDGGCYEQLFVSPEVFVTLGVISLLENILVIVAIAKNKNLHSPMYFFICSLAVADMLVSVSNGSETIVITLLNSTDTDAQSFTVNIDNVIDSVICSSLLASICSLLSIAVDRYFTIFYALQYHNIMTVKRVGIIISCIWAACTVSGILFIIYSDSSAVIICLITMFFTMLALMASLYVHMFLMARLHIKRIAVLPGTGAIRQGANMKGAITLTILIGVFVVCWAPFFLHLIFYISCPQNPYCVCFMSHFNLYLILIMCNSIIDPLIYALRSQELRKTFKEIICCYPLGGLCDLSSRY
# [15] = biological target: T6, MC3R (Homo sapiens, UniProt P41968); conditions: Chaki 2003; read-out: binding affinity at hMC3R; cited from earlier work
# T6 sequence (P41968 whole entry): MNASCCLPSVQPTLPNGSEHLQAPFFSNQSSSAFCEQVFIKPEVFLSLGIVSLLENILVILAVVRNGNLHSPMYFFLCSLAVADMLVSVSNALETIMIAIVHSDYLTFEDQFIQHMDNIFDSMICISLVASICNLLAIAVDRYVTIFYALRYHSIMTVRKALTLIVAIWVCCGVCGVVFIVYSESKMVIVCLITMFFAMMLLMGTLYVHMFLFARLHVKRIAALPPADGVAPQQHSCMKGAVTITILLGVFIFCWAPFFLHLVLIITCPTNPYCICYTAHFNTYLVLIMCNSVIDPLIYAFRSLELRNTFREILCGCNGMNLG
# [16] = biological target: human (h)MC4R (Homo sapiens, UniProt P32245); conditions: Chaki 2003; read-out: binding affinity at hMC4R; cited from earlier work
# Chain of human (h)MC4R (P32245 whole entry): as the sequence (P32245 whole entry) above
# [17] = biological target: MC1R (Homo sapiens, UniProt Q01726); conditions: unable to displace at up to this concentration; Chaki 2003; read-out: displacement of radiolabeled NDP-MSH at hMC1R; cited from earlier work
# Chain of MC1R (Q01726 whole entry): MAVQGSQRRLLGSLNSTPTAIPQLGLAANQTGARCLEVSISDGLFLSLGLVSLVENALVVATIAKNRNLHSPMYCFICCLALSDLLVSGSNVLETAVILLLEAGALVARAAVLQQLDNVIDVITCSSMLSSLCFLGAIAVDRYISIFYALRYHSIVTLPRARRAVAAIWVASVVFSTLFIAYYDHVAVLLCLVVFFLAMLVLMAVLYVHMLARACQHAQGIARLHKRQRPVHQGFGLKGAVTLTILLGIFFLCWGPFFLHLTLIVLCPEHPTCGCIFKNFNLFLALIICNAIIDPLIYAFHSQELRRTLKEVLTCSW
# [18] = biological target: T5, MC4R; conditions: Grieco 2002; cited from earlier work
# [19] = biological target: T6, MC3R; conditions: Grieco 2002; cited from earlier work
# [20] = biological target: T7, MC5R (Homo sapiens, UniProt P33032); conditions: Bednarek, Peptides 2007, cited from earlier work
# T7 sequence (P33032 whole entry, species assumed): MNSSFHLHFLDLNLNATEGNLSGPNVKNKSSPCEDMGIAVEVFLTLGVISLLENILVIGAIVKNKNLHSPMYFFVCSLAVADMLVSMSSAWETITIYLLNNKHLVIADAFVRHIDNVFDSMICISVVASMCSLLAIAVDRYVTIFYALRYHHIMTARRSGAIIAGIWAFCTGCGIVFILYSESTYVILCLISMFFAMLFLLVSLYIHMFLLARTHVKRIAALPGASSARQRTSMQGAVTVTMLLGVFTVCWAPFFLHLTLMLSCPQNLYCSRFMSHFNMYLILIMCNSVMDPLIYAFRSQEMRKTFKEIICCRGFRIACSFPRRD
# [21] = biological target: T7, MC5R; conditions: Bednarek, Peptides 2007; cited from earlier work
molecule,measurement,setting,value
CC(=O)N[C@H](Cc1ccc2ccccc2c1)C(=O)N[C@H](Cc1ccc2ccccc2c1)C(=O)N[C@H](Cc1ccc2ccccc2c1)C(=O)N[C@H](Cc1ccc2ccccc2c1)C(N)=O [Ac-DNal(2′)-DNal(2′)-DNal(2′)-DNal(2′)-NH2] (Ac-[d2Nal][d2Nal][d2Nal][d2Nal]-NH2),solubility in solvents compatible with RP-HPLC,[1],insoluble
"CC(=O)N[C@H](Cc1ccc2ccccc2c1)C(=O)N[C@@H](CCCNC(=N)N)C(=O)N[C@H](Cc1ccc2ccccc2c1)C(=O)N[C@H](CCCCN)C(N)=O [compound 13, Ac-DNal(2′)-Arg-DNal(2′)-DLys-NH2] (Ac-[d2Nal]R[d2Nal][dK]-NH2)",pEC50,[2],5.10 to 6.40
CC(=O)N[C@H](Cc1ccc2ccccc2c1)C(=O)N[C@@H](CCCNC(=N)N)C(=O)N[C@H](Cc1ccc2ccccc2c1)C(=O)N[C@H](Cc1ccc2ccccc2c1)C(N)=O [compound 14] (Ac-[d2Nal]R[d2Nal][d2Nal]-NH2),pEC50,[2],5.10 to 6.40
"CC(=O)N[C@H](Cc1ccc2ccccc2c1)C(=O)N[C@@H](CCCNC(=N)N)C(=O)N[C@H](Cc1ccc2ccccc2c1)C(=O)N[C@@H](CCCNC(=N)N)C(N)=O [compound 15, Ac-DNal(2′)-Arg-DNal(2′)-Arg-NH2] (Ac-[d2Nal]R[d2Nal]R-NH2)",pEC50,[2],5.10 to 6.40
CC(=O)N[C@H](Cc1ccc2ccccc2c1)C(=O)N[C@@H](CCCNC(=N)N)C(=O)N[C@H](Cc1ccc(I)cc1)C(=O)N[C@H](Cc1ccc2ccccc2c1)C(N)=O [compound 20] (Ac-[d2Nal]R[dPhe(4-I)][d2Nal]-NH2),mMC3R antagonist pA2,[3],6.1
same,"mMC3R antagonist pA2, previously reported",[4],5.6
same,"mMC3R partial agonist efficacy, % of the maximal NDP-MSH signal, previously reported",[5],40%
same,"mMC4R antagonist pA2, previously reported",[6],5.9
same,"mMC5R partial agonist efficacy, % of the maximal NDP-MSH signal, previously reported",[7],43%
same,mMC4R antagonist pA2,[8],6.5
same,"mMC4R partial agonist efficacy, % of the maximal NDP-MSH signal, previously reported",[9]; Doering 2017,37%
same,pEC50,[10]; read-out: mMC1R agonist EC50,5.30
same,mMC1R agonist activity,[10],full agonist activity
"CC(=O)N[C@H](Cc1ccc2ccccc2c1)C(=O)N[C@@H](CCCNC(=N)N)C(=O)N[C@@H](Cc1ccc2ccccc2c1)C(=O)N[C@H](CCCCN)C(N)=O [compound 22, Ac-DNal(2′)-Arg-Nal(2′)-DLys-NH2] (Ac-[d2Nal]R[2Nal][dK]-NH2)",mMC4R antagonist pA2,[8],7.8
same,pEC50,[2],5.10 to 6.40
"CC(=O)N[C@H](Cc1ccc(I)cc1)C(=O)N[C@H](Cc1ccc2ccccc2c1)C(=O)N[C@H](Cc1ccc2ccccc2c1)C(=O)N[C@@H](CCCNC(=N)N)C(N)=O [compound 27, Ac-DPhe(pI)-DNal(2′)-DNal(2′)-Arg-NH2] (Ac-[dPhe(4-I)][d2Nal][d2Nal]R-NH2)",mMC3R antagonist activity,[3],did not act as antagonists
same,mMC5R agonist activity,[11],full mMC5R agonists
"CC(=O)N[C@H](Cc1ccc(I)cc1)C(=O)N[C@H](Cc1ccc2ccccc2c1)C(=O)N[C@H](Cc1ccc(I)cc1)C(=O)N[C@@H](CCCNC(=N)N)C(N)=O [compound 33, Ac-DPhe(pI)-DNal(2′)-DPhe(pI)-Arg-NH2] (Ac-[dPhe(4-I)][d2Nal][dPhe(4-I)]R-NH2)",mMC3R antagonist activity,[3],did not act as antagonists
same,mMC4R agonist activity,[12],inactive
same,mMC1R agonist activity,[10],partially stimulate
same,pEC50,[11],6.10 to 7.52
same,pEC50,[11]; read-out: mMC5R agonist EC50,6.89
same,mMC5R agonist activity,[11],full mMC5R agonists
same,mMC3R agonist activity,[13],inactive
"CC(=O)N[C@H](Cc1ccc(I)cc1)C(=O)N[C@H](Cc1ccc2ccccc2c1)C(=O)N[C@@H](Cc1ccc2ccccc2c1)C(=O)N[C@@H](CCCNC(=N)N)C(N)=O [compound 36, Ac-DPhe(pI)-DNal(2′)-Nal(2′)-Arg-NH2] (Ac-[dPhe(4-I)][d2Nal][2Nal]R-NH2)",mMC3R antagonist activity,[3],did not act as antagonists
same,mMC4R antagonist pA2,[8],5.8
same,pEC50,[11],6.10 to 7.52
same,mMC5R agonist activity,[11],full mMC5R agonists
Ac-DNal(2′)-Arg-DNal(2′),pIC50,[14],7.44
Ac-DNal(2′)-Arg-DPhe(pI)-Arg-NH2 [compound 21],mMC1R agonist activity,[10],full agonist activity
Ac-DNal(2′)-Arg-DPhe(pI)-DLys-NH2 [compound 19],mMC1R agonist activity,[10],full agonist activity
Ac-DNal(2′)-Arg-Nal(2′) [MCL0020],pIC50,[15],5.95
same,pIC50,[14],7.81
same,pIC50,[16],7.93
same,pIC50,[17],< 5.00
Ac-DPhe(pI)-Arg-DPhe(pI)-Arg-NH2 [compound 45],mMC1R agonist activity,[10],full agonist activity
Ac-DPhe(pI)-Arg-DPhe(pI)-DLys-NH2 [compound 43],mMC1R agonist activity,[10],full agonist activity
Ac-DPhe(pI)-DNal(2′)-Trp-DLys-NH2 [compound 28],mMC3R antagonist pA2,[3],5.7
same,mMC4R antagonist pA2,[8],6.6
Ac-His-DPhe-Arg-Trp-NH2 [reference compound],agonist potency at the mMC4R,[9]; Haskell-Luevano 2001,nanomolar
Ac-Nle-c[Asp-Pro-DNal(2′)-Arg-Trp-Lys]-NH2 [PG901],hMC4R antagonist pA2,[18],9.3
same,hMC3R antagonist pA2,[19],9.0
Ac-Oic-DBip-Pip-Trp-NH2,pEC50,[20]; read-out: agonist potency at the MC5R,5.92
Ac-Phe(pI)-Nal(2′)-Phe(pI)-Arg-NH2 [compound 49],mMC4R agonist activity,[12],inactive
same,mMC1R agonist activity,[10],partially stimulate
same,mMC5R agonist activity,[11],did not possess agonist activity
same,mMC3R agonist activity,[13],inactive
Ac-Ser-Tyr-Ser-Nle-Glu-Oic-DBip-Pip-Trp-Gly-Lys-Pro-Val-NH2 (Ac-SYS[Nle]E[Oic][dBip][Pip′]WGKPV-NH2; reading uncertain; also: printed as Ac-Ser-Tyr-Ser-Nle-Glu-Oic-DBip-Pip-Trp-Gly-Lys-Pro-Val-NH2),MC5R agonist potency,[20],sub-nanomolar
same,selectivity for the MC5R by radiolabeled 125I-NDP-MSH displacement,[21],greater than 3200 fold
Ac-[dPhe(4-I)]R[2Nal]R-NH2 [compound 48],mMC3R antagonist pA2,[3],7.8
same,"mMC4R partial activation, % of the maximal NDP-MSH signal",[12]; 100 μM,25%
same,MC4R antagonist potency compared to endogenous AGRP(86-132),[8],about equipotent
same,mMC4R antagonist pA2,[8],9.0
